Source: patent US20240197652A1, “KETAMINE IN THE TREATMENT OF […]” (Awakn LS Europe Holdings Limited, priority 2021, published 2024)

What was measured:
Format in all cases: in vivo, human
[1] = system: subjects with gaming disorder; assay: Craving for Gaming Questionnaire (CGQ), Example 9; settings: for CGQ score at 2-week follow up: after 100 mg racemic ketamine sublingual; for CGQ score, pre-administration: baseline before 100 mg racemic ketamine sublingual; for % change in Craving for Gaming Questionnaire: pre-administration to 2-week follow up, 100 mg racemic ketamine sublingual
Method: A study was completed on ketamine to treat gaming disorder. Subjects were assessed for gaming disorder using the Internet Gaming Disorder Scale (IGDS) and were included if they received an IGDS score greater than 3. Three subjects in total were included (IG1-IG3). All three were administered sublingual lozenges comprising 100 mg of racemic ketamine.
The treatment protocol commenced in the same manner as disclosed in the ketamine in subjects with gambling disorder study completed in EXAMPLE 7, with the exceptions as follow: No behavioural tasks were completed. Self-report measures completed during EXAMPLE 9 included Social Phobia Inventory (SPIN), the Craving for Gaming Questionnaire (CGQ), and Generalised Anxiety Disorder-7 (GAD-7) the Sensitivity to Reward and Punishment Scale, and the Childhood Trauma Questionnaire, the Morningness-Eveningness Questionnaire (MEQ).

subjects with CSBD = assay: Sensitivity to reward (SPSRQ), Example 10; settings: for Sensitivity to Reward at 2-week follow up: after 100 mg racemic ketamine sublingual; for Sensitivity to Reward, pre-administration: baseline before 100 mg racemic ketamine sublingual; for % change in Sensitivity to Reward: pre-administration to 2-week follow up, 100 mg racemic ketamine sublingual
Method: Reward sensitivity was assessed using the SPSRQ. Behavioural tasks, EEG measurements, and subjective experience assessments were also completed.
A study was completed on the use of ketamine to treat CSBD. Subjects were assessed for CSBD using the Problematic Pornography Use Scale (PPUS) and were included if they received an PPUS score greater than 3. Three subjects in total were included (CSB1-CSB3). All three were administered sublingual lozenges comprising 100 mg of racemic ketamine.
The treatment protocol commenced in the same way as disclosed in the ketamine in subjects with gambling disorder study completed in EXAMPLE 7, with the exceptions outlined as follows: No behavioural tasks were completed. Self-report measures completed during EXAMPLE 10 included the Emotional Intimacy Measure, the Childhood Trauma Questionnaire, the Generalised Anxiety Disorder-7 (GAD-7), the Morningness-Eveningness Questionnaire (MEQ), and the Problematic Pornography Questionnaire (PPQ), the Acceptance and Action Questionnaire, and the Psychological and Interpersonal Relationship Scales (PAIRS).

[2] = system: subjects with binge eating disorder; assay: Binge Eating Scale (BES), Example 8; settings: for Binge Eating Scale score at 2-week follow up / BES classification at two-week follow up: after 100 mg racemic ketamine sublingual; for BES classification, pre-administration / Binge Eating Scale score, pre-administration: baseline before 100 mg racemic ketamine sublingual; for % change in Binge Eating Scale: pre-administration to 2-week follow up, 100 mg racemic ketamine sublingual
Description: Binge eating disorder may be characterised as being mild, moderate, and severe. The severity of binge eating disorder may be determined by the Binge Eating Scale (BES), wherein a score below 17 indicates no binge eating disorder, a score of between 18-20 indicates mild binge eating disorder, a score of between 21-27 indicates moderate binge eating disorder, and a score above 27 indicates severe binge eating disorder (Grupski et al., 2013), or based on ordinary skill. In embodiments, a patient may have binge eating disorder characterised as being mild. In other embodiments, a patient may have binge eating disorder characterised as being moderate. In other embodiments, a patient may have binge eating disorder characterised as being severe.
A study was completed on the use of ketamine to treat binge eating disorder. Subjects were assessed for binge eating disorder using the Binge Eating Scale (BES), and included if they received a BES score greater than 15. Three subjects in total were included (BE1-BE3, and interchangeably on FIGS. 5 and 6 as BED1-BED3, these being the same subjects). All three were administered sublingual lozenges comprising 100 mg of racemic ketamine.
The treatment protocol commenced in substantially the same way as disclosed in the ketamine in subjects with gambling disorder study completed in EXAMPLE 7, with the exceptions outlined as follows: No behavioural tasks were completed. Blood samples collected every 10 minutes from the time of administration to 90 minutes post-administration were additionally analysed for leptin and ghrelin. Self-report measures included the Binge Eating Scale, the Adult Attachment Interview (AAI), a 20 question interview about the subject's recollections of their childhood (Sykes and Turner, 2015); the Childhood Trauma Questionnaire; the Morningness-Eveningness Questionnaire (MEQ), a 19-item questionnaire designed to assess when a respondent prefers to wake up or start sleep (American Thoracic Society, 2022); the DSM-5 Binge Eating Disorder diagnostic criteria; and the SPSRQ.

CNC1(c2ccccc2Cl)CCCCC1=O (racemic) [ketamine, 2-(2-chlorophenyl)-2-(methylamino)-cyclohexanone]
CGQ score at 2-week follow up ([1]; subject IG1): 28
CGQ score, pre-administration ([1]; subject IG1): 30
% change in Craving for Gaming Questionnaire ([1]; subject IG1): −6.67%
CGQ score at 2-week follow up ([1]; subject IG2): 15
CGQ score, pre-administration ([1]; subject IG2): 31
% change in Craving for Gaming Questionnaire ([1]; subject IG2): −51.61%
CGQ score at 2-week follow up ([1]; subject IG3): 21
CGQ score, pre-administration ([1]; subject IG3): 45
% change in Craving for Gaming Questionnaire ([1]; subject IG3): −53.33%
Sensitivity to Reward at 2-week follow up (subjects with CSBD; subject CSB1): 9
Sensitivity to Reward, pre-administration (subjects with CSBD; subject CSB1): 10
% change in Sensitivity to Reward (subjects with CSBD; subject CSB1): −10%
Sensitivity to Reward at 2-week follow up (subjects with CSBD; subject CSB2): 15
Sensitivity to Reward, pre-administration (subjects with CSBD; subject CSB2): 15
Sensitivity to Reward at 2-week follow up (subjects with CSBD; subject CSB3): 9
Sensitivity to Reward, pre-administration (subjects with CSBD; subject CSB3): 17
% change in Sensitivity to Reward (subjects with CSBD; subject CSB3): −47.06%
Binge Eating Scale score at 2-week follow up ([2]; subject BE1): 24
BES classification, pre-administration ([2]; subject BE1): moderate binge eating disorder (a score of between 21-27 indicates moderate binge eating disorder)
Binge Eating Scale score, pre-administration ([2]; subject BE1): 26
BES classification at two-week follow up ([2]; subject BE1, moderate binge eating disorder pre-administration): remained so
% change in Binge Eating Scale ([2]; subject BE1): −7.69%
Binge Eating Scale score at 2-week follow up ([2]; subject BE2): 35
Binge Eating Scale score, pre-administration ([2]; subject BE2): 32
% change in Binge Eating Scale ([2]; subject BE2): +9.38%
Binge Eating Scale score at 2-week follow up ([2]; subject BE3): 28
BES classification, pre-administration ([2]; subject BE3): severe binge eating disorder (a score above 27 indicates severe binge eating disorder)
Binge Eating Scale score, pre-administration ([2]; subject BE3): 42
% change in Binge Eating Scale ([2]; subject BE3): −33.33%
BES classification at two-week follow up ([2]; subject BE3, severe binge eating disorder pre-administration): one point away from the moderate classification
